From patent US7078414B2, “Derivatives of 3-guanidinocarbonyl-1-heteroaryl-pyrrole, preparation process and intermediates of this process, their use as medicaments, and pharmaceutical compositions comprising them” (Sanofi-Aventis Deutschland GmbH, priority 2002, dated 2006)
Structures can show the parent of a compound that is named as a salt.

Tests used:
NHE-1 subtype = molecular target: T1, NHE-1 subtype (Homo sapiens, UniProt P19634); experiment: NHE inhibition FLIPR test (intracellular pH recovery, BCECF) in transfected LAP-1 cell lines expressing NHE subtypes; assay type: cell-based; conditions: transfected LAP-1 cells expressing NHE-1 subtype, read-out: IC50 (NHE1)
T1 construct: expressed in transfected cells; host or cells: LAP-1 cells (parental line has no endogenous NHE activity), stably transfected and kept under G418 selection
T1 sequence (P19634 whole entry): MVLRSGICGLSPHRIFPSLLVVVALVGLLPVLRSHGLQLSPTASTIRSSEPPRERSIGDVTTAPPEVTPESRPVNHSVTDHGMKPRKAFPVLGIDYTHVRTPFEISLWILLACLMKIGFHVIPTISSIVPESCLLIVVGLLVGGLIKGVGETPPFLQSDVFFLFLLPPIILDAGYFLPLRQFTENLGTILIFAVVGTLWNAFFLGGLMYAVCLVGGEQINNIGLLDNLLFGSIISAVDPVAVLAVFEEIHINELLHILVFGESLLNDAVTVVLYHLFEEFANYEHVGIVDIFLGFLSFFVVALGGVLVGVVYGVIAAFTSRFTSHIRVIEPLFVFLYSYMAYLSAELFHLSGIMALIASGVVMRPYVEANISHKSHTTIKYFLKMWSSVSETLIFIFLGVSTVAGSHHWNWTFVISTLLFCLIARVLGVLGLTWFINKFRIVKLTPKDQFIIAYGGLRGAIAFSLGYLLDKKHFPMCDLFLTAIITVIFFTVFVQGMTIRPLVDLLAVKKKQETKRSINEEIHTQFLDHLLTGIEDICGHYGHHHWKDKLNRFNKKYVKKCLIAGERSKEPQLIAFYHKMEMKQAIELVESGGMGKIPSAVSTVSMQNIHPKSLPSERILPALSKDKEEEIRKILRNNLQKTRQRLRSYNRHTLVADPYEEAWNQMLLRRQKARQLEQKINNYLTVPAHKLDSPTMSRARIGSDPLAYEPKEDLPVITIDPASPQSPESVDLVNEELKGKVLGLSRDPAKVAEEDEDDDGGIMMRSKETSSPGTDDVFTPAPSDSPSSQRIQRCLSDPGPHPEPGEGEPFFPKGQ
Description: The NHE inhibitory activities (IC50 values) of the compounds according to the invention were determined by a FLIPR test.
The test is performed in the FLIPR (Fluorescent Imaging Plate Reader) equipped with clear-bottomed and black-walled 96-well microtitration plates.
The growth medium for the transfected cells (Iscove +10% foetal calf serum) also comprises G418 as selection antibiotic to ensure the presence of transfected sequences.
The actual test begins by eliminating the growth medium and adding 100 μl of loading buffer per well (5 μM of BCECF-AM [2′,7′-bis(2-carboxyethyl)-5-(6)-carboxyfluoresceine acetoxymethyl ester] in 20 mM of NH4Cl, 115 mM of choline chloride, 1 mM of CaCl2, 5 mM of KCl, 20 mM of HEPES and 5 mM of glucose; pH 7.4 (adjusted with KOH). The cells are then incubated for 20 minutes at 37° C. This incubation results in the loading of the fluorescent dye into the cells, the fluorescence intensity of which depends on the pHi, and on the NH4Cl, which results in a slight basification of the cells.
The precursor BCECF-AM, a non-fluorescent dye, is, as an ester, capable of crossing the membrane. The actual dye, which is incapable of crossing the membrane, is released inside the cell by esterases.
After this 20-minute incubation, the loading buffer, which comprises NH4Cl and free BCECF-AM, is removed by washing three times in the cell washing device (Tecan Columbus), each wash being performed with 400 μL of washing buffer (133.8 mM of choline chloride, 4.7 mM of KCl, 1.25 mM of MgCl2, 1.25 mM of CaCl2, 0.97 mM of K2HPO4, 0.23 mM of KH2PO4, 5 mM of HEPES and 5 mM of glucose; pH 7.4 (adjusted with KOH)). The residual volume remaining in the wells is 90 μL (possibly between 50 and 125 μL). This washing step removes the free BCECF-AM and results in an intracellular acidification (pHi of 6.3–6.4) due to the removal of the external ammonium ions.
As the equilibrium of the intracellular ammonium with the aqueous ammonia and the protons, by removal of the extracellular ammonium and by the subsequent immediate crossing of the aqueous ammonia across the cell membrane, is disrupted, the washing process results in intracellular protons remaining, which is the cause of the intracellular acidification. This acidification can result finally in the death of the cells if it lasts long enough. It is important here for the washing buffer to be free of sodium (<1 mM), otherwise the extracellular sodium ions would result in an immediate increase in the pHi on account of the activity of the cloned NHE isoforms. It is also important for all the buffers used (loading buffer, washing buffer and regeneration buffer) not to contain any HCO3-ions, otherwise the presence of bicarbonate would result in the activation of bicarbonate-dependent systems that disrupt the pHi regulation, which systems are contained in the LAP-1 parental cell line.
The microtiter plates containing acidified cells are then transferred (up to 20 minutes after the acidification) to the FLIPR. In the FLIPR, the intracellular fluorescent dye is activated with light of a wavelength of 488 nm, which is generated by an argon laser, and the measuring parameters (laser power, illumination time and diaphragm of the […] camera integrated into the FLIPR) are chosen such that the average value of the f fluorescent signal per well is between 30,000 and 35,000 relative fluorescence units.
The actual measurement in the FLIPR starts with a photograph being taken by the CCD camera every two seconds under software control. After 10 seconds, the increase in the intracellular pH is initiated by adding 90 μL of regeneration buffer (133.8 mM of NaCl, 4.7 mM of KCl, 1.25 mM of MgCl2, 1.25 mM of CaCl2, 0.97 mM of K2HPO4, 0.23 mM of KH2PO4, 10 mM of HEPES and 5 mM of glucose; pH 7.4 (adjusted with NaOH)) using a 96-well pipette device incorporated into the FLIPR.
Some wells, to which is added pure regeneration buffer, serve as positive controls (100% NHE activity). […]

Row | SMILES | melting point [°C] | IC50 (NHE-1 subtype) [µM]
1 | Cc1cn(-c2ccnc3ccccc23)cc1C(=O)NC(=N)N [Example 9, 3-Guanidinocarbonyl-4-methyl-1-(quinol-4-yl)-1H-pyrrole] | 215 | 0.00025
2 | CC(=O)O.Cc1cn(-c2cnc3ccccc3c2)cc1C(=O)NC(=N)N [Example 30, N-(4-Methyl-1-quinolin-3-yl-1H-pyrrole-3-carbonyl)-guanidine hydrogenacetate] | 279.5 | 0.017
3 | Cc1c(C(=O)NC(=N)N)ccn1-c1ccc2ccccc2n1 [Example 4, 3-Guanidinocarbonyl-2-methyl-1-(quinol-2-yl)-1H-pyrrole hydrochloride] |  | 0.096
4 | Cc1c(C(=O)NC(=N)N)cn(-c2ccnc3ccccc23)c1C [Example 11, 3-Guanidinocarbonyl-4,5-dimethyl-1-(quinol-4-yl)-1H-pyrrole dihydrochloride] |  | 0.019
5 | N=C(N)NC(=O)c1cn(-c2nccc3ccccc23)cc1C(F)(F)F [Example 15, 4-Trifluoromethyl-3-guanidinocarbonyl-1-(isoquinolin-1-yl)-1H-pyrrole hydrochloride] |  | 0.0026
6 | Cc1cn(-c2ccnc3cc(Cl)ccc23)cc1C(=O)N=C(N)N [Example 18, N-[1-(7-Chloro-quinolin-4-yl)-4-methyl-1H-pyrrole-3-carbonyl]-guanidine trifluoroacetate] |  | 0.0016
7 | Cl.NC(N)=NC(=O)c1ccn(-c2ccc3ccccc3n2)c1 [Example 1, 3-Guanidinocarbonyl-1-(quinol-2-yl)-1H-pyrrole hydrochloride] | 258 | 0.049
8 | Cc1cn(-c2ccnc3ccc(F)cc23)cc1C(=O)N=C(N)N [Example 20, N-[1-(6-Fluoro-quinolin-4-yl)-4-methyl-1H-pyrrole-3-carbonyl]-guanidine trifluoroacetate] |  | 0.0008
9 | Cc1c(C(=O)N=C(N)N)ccn1-c1ccnc2ccccc12 (as salt: hydrochloride) [Example 3, 3-Guanidinocarbonyl-2-methyl-1-(quinol-4-yl)-1H-pyrrole dihydrochloride] | 240 | 
10 | Cc1cn(-c2cncnc2)cc1C(=O)NC(=N)N [Example 28, N-(4-Methyl-1-pyrimidin-5-yl-1H-pyrrole-3-carbonyl)-guanidine] |  | 0.192
11 | NC(N)=NC(=O)c1ccn(-c2ccnc3cc(Cl)ccc23)c1 [Example 19, N-[1-(7-Chloro-quinolin-4-yl)-1H-pyrrole-3-carbonyl]-guanidinetrifluoracetate] |  | 0.0429
12 | Cc1cc(-n2ccc(C(=O)N=C(N)N)c2)c2ccccc2n1 [Example 17, N-[1-(2-Methyl-quinolin-4-yl)-1H-pyrrole-3-carbonyl]-guanidinetrifluoroacetate] |  | 0.0107
13 | Cl.N=C(N)NC(=O)c1cn(-c2ccnc3ccccc23)cc1C1CC1 [Example 12, 4-Cyclopropyl-3-guanidinocarbonyl-1-(quinolin-4-yl)-1H-pyrrole dihydrochloride] | 185 | 0.0005
14 | Cc1cn(-c2cccnc2)cc1C(=O)NC(=N)N [Example 27, N-(4-Methyl-1-pyridin-3-yl-1H-pyrrole-3-carbonyl)-guanidine] |  | 0.0006
15 | Cc1cn(-c2ncccn2)cc1C(=O)NC(=N)N [Example 25, N-(4-Methyl-1-pyrimidin-2-yl-1H-pyrrole-3-carbonyl)-guanidine] | 208.5 | 
16 | NC(N)=NC(=O)c1ccn(-c2ccnc3ccccc23)c1 (as salt: hydrochloride) [Example 2, 3-Guanidinocarbonyl-1-(quinol-4-yl)-1H-pyrrole dihydrochloride] | 244 | 
17 | NC(N)=NC(=O)c1ccn(-c2nccc3ccccc23)c1 [Example 5, 3-Guanidinocarbonyl-1-(isoquinol-1-yl)-1H-pyrrole hydrochloride] |  | 0.051

Row | SMILES | melting point [°C] | IC50 (NHE-1 subtype) [µM]
18 | CC(=O)O.Cc1cn(-c2ccc3ccccc3n2)cc1C(=O)NC(=N)N [Example 29, N-(4-Methyl-1-quinolin-2-yl-1H-pyrrole-3-carbonyl)-guanidine hydrogenacetate] | 264.4 | 0.0043
19 | Cc1cn(-c2cccc3ncccc23)cc1C(=O)NC(=N)N.Cl [Example 13, 3-Guanidinocarbonyl-4-methyl-1-(quinolin-5-yl)-1H-pyrrole hydrochloride] | 240 | 0.0001
20 | NC(N)=NC(=O)c1ccn(-c2cnnc3ccccc23)c1 [Example 24, N-(1-Cinnolin-4-yl-1H-pyrrole-3-carbonyl)-guanidine trifluoroacetate] |  | 0.222
21 | NC(N)=NC(=O)c1ccn(-c2ccnc3c(F)cccc23)c1 [Example 23, N-[1-(8-Fluoro-quinolin-4-yl)-1H-pyrrole-3-carbonyl]-guanidinetrifluoroacetate] |  | 0.0977
22 | N=C(N)NC(=O)c1cn(-c2ccnc3ccccc23)cc1C(F)(F)F [Example 14, 4-Trifluoromethyl-3-guanidinocarbonyl-1-(quinolin-4-yl)-1H-pyrrole] |  | 0.0023
23 | Cc1cn(-c2nccc3ccccc23)cc1C(=O)NC(=N)N.Cl [Example 10, 3-Guanidinocarbonyl-1-(isoquinol-1-yl)4-methyl-1H-pyrrole hydrochloride] | 247 | 0.00016
24 | Cc1c(C(=O)NC(=N)N)ccn1-c1ccc2ccccc2n1 (as salt: hydrochloride) [Example 4, 3-Guanidinocarbonyl-2-methyl-1-(quinol-2-yl)-1H-pyrrole hydrochloride] | 250 | 
25 | Cc1cn(-c2ccccn2)cc1C(=O)NC(=N)N [Example 26, N-(4-Methyl-1-pyridin-2-yl-1H-pyrrole-3-carbonyl)-guanidine] |  | 0.0036
26 | NC(N)=NC(=O)c1ccn(-c2ccnc3ccc(F)cc23)c1 [Example 21, N-[1-(6-Fluoro-quinolin-4-yl)-1H-pyrrole-3-carbonyl]-guanidinetrifluoroacetate] |  | 0.029
27 | Cc1cn(-c2ccnc3c(F)cccc23)cc1C(=O)N=C(N)N [Example 22, N-[1-(8-Fluoro-quinolin-4-yl)-4-methyl-1H-pyrrole-3-carbonyl]-guanidine trifluoroacetate] |  | 0.0002
28 | N=C(N)NC(=O)c1ccn(-c2cccc3cccnc23)c1 [Example 7, 3-Guanidinocarbonyl-1-(quinol-8-yl)-1H-pyrrole] | 155 | 0.09
29 | NC(N)=NC(=O)c1ccn(-c2ccnc3ccccc23)c1 [Example 2, 3-Guanidinocarbonyl-1-(quinol-4-yl)-1H-pyrrole dihydrochloride] |  | 0.022
30 | Cc1c(C(=O)N=C(N)N)ccn1-c1ccnc2ccccc12 [Example 3, 3-Guanidinocarbonyl-2-methyl-1-(quinol-4-yl)-1H-pyrrole dihydrochloride] |  | 0.067
31 | N=C(N)NC(=O)c1ccn(-c2cncc3ccccc23)c1 [Example 8, 3-Guanidinocarbonyl-1-(isoquinol-4-yl)-1H-pyrrole] |  | 0.121
32 | N=C(N)NC(=O)c1ccn(-c2cccc3ncccc23)c1 [Example 6, 3-Guanidinocarbonyl-1-(quinol-5-yl)-1H-pyrrole] | 260 | 0.044
33 | Cc1cc(-n2cc(C)c(C(=O)N=C(N)N)c2)c2ccccc2n1 [Example 16, N-[4-Methyl-1-(2-methyl-quinolin-4-yl)-1H-pyrrole-3-carbonyl]-guanidine trifluoroacetate] |  | 0.0031
